# Assay results: PubChem BioAssay AID624274 (Broad Institute, 2012)
# Where “and” joins values, the source holds several entries; their conditions need not be identical. Identical values can stand only once.
# Target: Protein disulfide-isomerase (Homo sapiens) (UniProt P07237)
# Assay: inhibition of PDI-mediated insulin reduction – biochemical, turbidity, absorbance, cherry-picked samples, set 2, dose response (AID 624274)
# Conditions: absorbance 650 nm
# Chain of Protein disulfide-isomerase (Homo sapiens) (P07237 whole entry, looked up): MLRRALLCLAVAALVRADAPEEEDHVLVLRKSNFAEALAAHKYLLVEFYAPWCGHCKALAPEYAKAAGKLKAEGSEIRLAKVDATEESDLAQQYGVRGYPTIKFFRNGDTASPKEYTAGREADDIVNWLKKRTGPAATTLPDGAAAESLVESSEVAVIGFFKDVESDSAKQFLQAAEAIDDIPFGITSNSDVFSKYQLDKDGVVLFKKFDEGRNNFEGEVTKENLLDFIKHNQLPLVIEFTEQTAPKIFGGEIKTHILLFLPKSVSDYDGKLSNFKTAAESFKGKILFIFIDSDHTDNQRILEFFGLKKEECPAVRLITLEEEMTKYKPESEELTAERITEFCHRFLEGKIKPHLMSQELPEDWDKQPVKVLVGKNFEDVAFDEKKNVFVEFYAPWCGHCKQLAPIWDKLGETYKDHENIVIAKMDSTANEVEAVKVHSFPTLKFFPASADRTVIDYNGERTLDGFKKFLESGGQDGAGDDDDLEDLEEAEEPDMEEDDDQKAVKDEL
row,Structure (SMILES),AC50
1,C[C@@H]1CN([C@@H](C)CO)C(=O)c2cc(NC(=O)Cc3cn(C)c4ccccc34)ccc2O[C@H]1CN(C)S(=O)(=O)c1ccc(F)cc1,2.08 µM
2,O=S(=O)(c1ccccc1)N1N=C(c2ccc(O)cc2)CC1c1ccco1 (stereo not drawn),19.5 µM
3,Cc1noc(C)c1S(=O)(=O)Nc1ccc2c(c1)CC(=O)N([C@@H](C)CO)C[C@@H](C)[C@H](CN(C)S(=O)(=O)c1ccc(F)cc1)O2,19.5 µM
4,CC(Cc1ccccc1Sc1ccccc1O)N(C)C (stereo not drawn),15.9 µM
5,C[C@@H]1CN([C@@H](C)CO)C(=O)c2cccc(NS(C)(=O)=O)c2O[C@H]1CN(C)Cc1ccc(Oc2ccccc2)cc1,19.5 µM and 7.04 µM
6,C/C=C(\C)C(=O)NCCN1C2=NC[C@H](Cc3ccc(O)cc3)N2C[C@H]1Cc1ccc(O)cc1,15.4 µM
7,O=C(/C=C/c1ccc(NC(=O)c2ccccc2-c2ccccc2C(=O)O)cc1)c1ccccc1,11.4 µM
8,CN(C)S(=O)(=O)c1ccc(Cl)c(NC(=O)CSc2nnnn2-c2ccc(O)cc2)c1,19.5 µM
9,Cc1cccn2c(CN(C)C3CCCc4ccccc43)c(C(=O)N3CCOCC3)nc12 (stereo not drawn),19.5 µM
10,CC(C)Sc1nnc([C@H](Cc2c[nH]c3ccccc23)NC(=O)OC(C)(C)C)o1,19.5 µM
11,CCOC(=O)c1c(CNCCN(CC)CC)n(C)c2cc(Br)c(OC)cc12,0.376 µM
12,Oc1ccc(/C=C/c2nc(-c3ccccc3O)n(-c3ccccc3)n2)cc1,18.8 µM
13,COc1cc2cc(C(=O)N3CC(COS(C)(=O)=O)c4ccc(O)cc43)[nH]c2c(OC)c1OC (stereo not drawn),18 µM
14,Cc1c(O)ccc2c(CN3CCN(CCO)CC3)cc(=O)oc12,8.66 µM
15,CN(C)C(=O)CSc1nnc([C@H](Cc2c[nH]c3ccccc23)NC(=O)OC(C)(C)C)o1,19.5 µM
16,COc1ccccc1N1CCN(C(=O)C(=O)N/N=C/c2cccc(O)c2)CC1,19.5 µM
17,Cc1c(O)ccc2c(CN3CCN(C/C=C/c4ccccc4)CC3)cc(=O)oc12,19.5 µM

row,Structure (SMILES),AC50
1,CCN(CC)CCNC(=O)C(C(=O)c1ccccc1)n1ccccc1=O (stereo not drawn),2.16 µM
2,COc1cccc2c1C(=O)c1c(O)c3c(c(O)c1C2=O)CC(O)(C(C)=NO)CC3OC1CC(N)C(O)C(C)O1 (stereo not drawn),16.9 µM
3,O=C(c1c(O)cc(O)cc1O)C1c2c(cc(O)c3c2O[C@H](c2ccc(O)cc2)[C@@H](O)C3)OC1c1ccc(O)cc1 (stereo partly drawn),19.5 µM
4,NNC(=O)c1cc(-c2ccc(O)cc2)nc2ccc(Br)cc12,19.5 µM
5,O=c1c(O[C@@H]2O[C@H](CO)[C@@H](O)[C@H](O)[C@H]2O)c(-c2ccc(O)cc2)oc2cc(O)cc(O)c12,19 µM
6,C[C@H]1CN([C@@H](C)CO)C(=O)Cc2cc(NC(=O)Nc3ccccc3)ccc2O[C@H]1CN(C)Cc1ccccc1,10.3 µM
7,O=C1NC[C@H](Cc2ccccc2)N(C[C@H]2CCCN2C[C@H](Cc2ccccc2)N2C[C@H](Cc3ccc(O)cc3)N(CCc3ccccc3)C(=O)C2=O)C1=O,6.5 µM
8,O=C(NC(Cc1ccc(O)cc1)C(=O)N=Nc1c(O)[nH]c2ccccc12)c1ccccc1 (stereo not drawn),19.5 µM
9,COc1ccc(C(=O)Nc2ccccc2C(=O)NCc2ccco2)cc1,0.819 µM
10,CC[C@]12c3[nH]c4cc(-c5ccco5)ccc4c3CCN1C(=O)[C@@H](CC(=O)NCCCOC)C[C@@H]2C(=O)N1CCN(C(=O)c2ccco2)CC1,16.7 µM
11,Cc1noc(C)c1S(=O)(=O)Nc1ccc2c(c1)CC(=O)N([C@H](C)CO)C[C@H](C)[C@H](CN(C)S(=O)(=O)c1ccc(F)cc1)O2,19.5 µM and 16.9 µM
12,C[C@@H]1O[C@@H](O[C@H]2[C@H](O)[C@@H](O)[C@H](Oc3c(-c4ccc(O)c(O)c4)oc4cc(O)cc(O)c4c3=O)O[C@@H]2CO)[C@H](O)[C@H](O)[C@H]1O,4.28 µM
13,C[C@H]1CN([C@@H](C)CO)C(=O)c2cc(NC(=O)Cc3cn(C)c4ccccc34)ccc2O[C@@H]1CN(C)S(=O)(=O)c1ccc(F)cc1,19.5 µM
14,Cc1ccc2nc(N3CCN(Cc4nnnn4C4CCCC4)CC3)c(C#N)cc2c1,4.05 µM
15,COC(=O)CC1OCC=C2CN3CCC45C6=CC(=O)C(=O)C([N+](=O)[O-])=C6NC4C1C2CC35 (stereo not drawn),8.03 µM
16,C[C@@H]1O[C@@H](Oc2c(-c3ccc(O)c(O)c3)oc3cc(O)cc(O)c3c2=O)[C@H](O)[C@H](O)[C@H]1O,2.48 µM and 5.59 µM
